{"source": "patent US8906889B2", "about": "“C-3 cycloalkenyl triterpenoids with HIV maturation inhibitory activity” (priority 2012, dated 2014)", "data": [{"system": "recombinant NL4-3 virus (Renilla luciferase, Gag P373S)", "experiment": "HIV cell culture assay (luciferase reporter, MT-2 cells)", "assay_type": "cell-based", "conditions": "Renilla, NL43, MT-2 cells infected for 4-5 days with NLRluc recombinants; luciferase activity", "outline": "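MT-2 cells were infected for 4–5 days with NL4-3 carrying Renilla luciferase in place of part of nef and the Gag P373S change, in the presence of serially diluted inhibitor. Antiviral activity was quantified as luciferase signal from Dual Luciferase reagent.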", "units": {"EC50": "nM"}, "values": [{"compound": "C=C(C)[C@@H]1CC[C@]2(NCCN3CCS(=O)(=O)CC3)CC[C@]3(C)[C@H](CC[C@@H]4[C@@]5(C)CC=C(C6=CCC(CC(=O)O)CC6)C(C)(C)[C@@H]5CC[C@]43C)[C@@H]12", "note": "(stereo partly drawn) [Example A25, 2-(4-((1R,3aS,5aR,5bR,7aR,11aS,11bR,13aR,13bR)-3a-((2-(1,1-dioxidothiomorpholino)ethyl)amino)-5a,5b,8,8,11a-pentamethyl-1-(prop-1-en-2-yl)-2,3,3a,4,5,5a,5b,6,7,7a,8,11,11a,11b,12,13,13a,13b-octadecahydro-1H-cyclopenta[a]chrysen-9-yl)cyclohex-3-en-1-yl)acetic acid]", "EC50": 1.31}, {"compound": "C=C(C)[C@@H]1CC[C@]2(NCCN3CCS(=O)(=O)CC3)CC[C@]3(C)[C@H](CC[C@@H]4[C@@]5(C)CC=C(C6=CC=C(C(=O)O)CC6)C(C)(C)[C@@H]5CC[C@]43C)[C@@H]12", "note": "[Example A29, 4-((1R,3aS,5aR,5bR,7aR,11aS,11bR,13aR,13bR)-3a-((2-(1,1-dioxidothiomorpholino)ethyl)amino)-5a,5b,8,8,11a-pentamethyl-1-(prop-1-en-2-yl)-2,3,3a,4,5,5a,5b,6,7,7a,8,11,11a,11b,12,13,13a,13b-octadecahydro-1H-cyclopenta[a]chrysen-9-yl)cyclohexa-1,3-dienecarboxylic acid]", "EC50": 1.37}, {"compound": "C=C(C)[C@@H]1CC[C@]2(NCCS(=O)(=O)c3ccccc3)CC[C@]3(C)[C@H](CC[C@@H]4[C@@]5(C)CC=C(C6=CC=C(C(=O)O)CC6)C(C)(C)[C@@H]5CC[C@]43C)[C@@H]12", "note": "[Example A30, 4-((1R,3aS,5aR,5bR,7aR,11aS,11bR,13aR,13bR)-5a,5b,8,8,11a-pentamethyl-3a-((2-(phenylsulfonyl)ethyl)amino)-1-(prop-1-en-2-yl)-2,3,3a,4,5,5a,5b,6,7,7a,8,11,11a,11b,12,13,13a,13b-octadecahydro-1H-cyclopenta[a]chrysen-9-yl)cyclohexa-1,3-dienecarboxylic acid]", "EC50": 90}, {"compound": "C=C(C)[C@@H]1CC[C@]2(NCCN3CCS(=O)(=O)CC3)CC[C@]3(C)[C@H](CC[C@@H]4[C@@]5(C)CC=C(C6=CCC(NC(C)=O)(C(=O)O)CC6)C(C)(C)[C@@H]5CC[C@]43C)[C@@H]12", "note": "(stereo partly drawn) [Example A31, 1-acetamido-4-((1R,3aS,5aR,5bR,7aR,11aS,11bR,13aR,13bR)-3a-((2-(1,1-dioxidothiomorpholino)ethyl)amino)-5a,5b,8,8,11a-pentamethyl-1-(prop-1-en-2-yl)-2,3,3a,4,5,5a,5b,6,7,7a,8,11,11a,11b,12,13,13a,13b-octadecahydro-1H-cyclopenta[a]chrysen-9-yl)cyclohex-3-enecarboxylic acid]", "EC50": 10}]}]}
